Experimental data published in publication PMC9933715 (Antimicrobial Agents and Chemotherapy, 2023).

Experiments:
[1] = test system: ZIKV-R2A (strain FSS13025); assay: microbe, parasite or virus in culture; type: cell-based; conditions: Zika virus, Huh7.5, 48 h, read-out: ZIKV-R2A replication (fold DMSO) Mean
[2] = test system: DENV-R2A (Rluc-expressing DENV, serotype 2 strain 16681); assay: microbe, parasite or virus in culture; type: cell-based, Dengue virus; conditions: Dengue virus, Huh7.5, 48 h, read-out: DENV-R2A replication (fold DMSO) Mean, deconvolution screen, singletons, 50 µM, Huh7.5, 2 days postinfection
Huh7.5 cells = assay: Cell viability, CellTiter-Glo luminescent assay; conditions: deconvolution screen, singletons, 50 µM, uninfected Huh7.5

OCc1cc2cc(Br)ccc2[nH]1 [GA-0936, OCc1cc2cc(Br)ccc2[nH]1]
activity at 50 µM [1]: 63%
activity at 50 µM [2]: 13%
Cell viability (fold DMSO) Mean (Huh7.5 cells): 0.83 fold DMSO

Clc1ccc2nncn2c1 [GC-0731, Clc1ccc2nncn2c1]
activity at 50 µM [1]: 102%
activity at 50 µM [2]: 94%
Cell viability (fold DMSO) Mean (Huh7.5 cells): 1.03 fold DMSO

CC(=O)Nc1cc(C)ccc1F [MS-0037, CC(=O)Nc1cc(C)ccc1F]
activity at 50 µM [1]: 114%
activity at 50 µM [2]: 103%
Cell viability (fold DMSO) Mean (Huh7.5 cells): 1.28 fold DMSO

CNC(=O)Nc1ccc(F)c(C)c1 [MS-0046, CNC(=O)Nc1ccc(F)c(C)c1]
activity at 50 µM [1]: 97%
activity at 50 µM [2]: 96%
Cell viability (fold DMSO) Mean (Huh7.5 cells): 1.00 fold DMSO

O=C1CCCc2cc(O)ccc21 [MS-2425, Oc1ccc2C(=O)CCCc2c1]
activity at 50 µM [1]: 92%
activity at 50 µM [2]: 98%
Cell viability (fold DMSO) Mean (Huh7.5 cells): 1.05 fold DMSO

N#CCOc1cccc2ccccc12 [MS-7107, N#CCOc1cccc2ccccc12]
activity at 50 µM [1]: 84%
activity at 50 µM [2]: 65%
Cell viability (fold DMSO) Mean (Huh7.5 cells): 1.01 fold DMSO

CC(N)c1cccnc1 (stereo not drawn) [PS-3055, CC(N)c1cccnc1]
activity at 50 µM [1]: 111%
activity at 50 µM [2]: 100%
Cell viability (fold DMSO) Mean (Huh7.5 cells): 0.98 fold DMSO

Cc1cc(O)cc(O)n1 [PS-3153, Cc1cc(O)cc(O)n1]
activity at 50 µM [1]: 109%
activity at 50 µM [2]: 100%
Cell viability (fold DMSO) Mean (Huh7.5 cells): 0.97 fold DMSO

Oc1ccc2[nH]ccc2c1 [PS-3277, Oc1ccc2[nH]ccc2c1]
activity at 50 µM [1]: 74%
activity at 50 µM [2]: 52%
Cell viability (fold DMSO) Mean (Huh7.5 cells): 1.23 fold DMSO

Clc1ccc2nccnc2c1 [PS-3410, Clc1ccc2nccnc2c1]
activity at 50 µM [1]: 108%
activity at 50 µM [2]: 95%
Cell viability (fold DMSO) Mean (Huh7.5 cells): 1.20 fold DMSO

CN1CCN(c2ccccc2CN)CC1 [PS-3674, CN1CCN(CC1)c2ccccc2CN]
activity at 50 µM [1]: 89%
activity at 50 µM [2]: 60%
Cell viability (fold DMSO) Mean (Huh7.5 cells): 0.94 fold DMSO

NC(=O)C1CCCNC1 (stereo not drawn) [PS-3699, NC(=O)C1CCCNC1]
activity at 50 µM [1]: 113%
activity at 50 µM [2]: 95%
Cell viability (fold DMSO) Mean (Huh7.5 cells): 0.94 fold DMSO

Oc1ccc2ncccc2c1 [PS-3719, Oc1ccc2ncccc2c1]
activity at 50 µM [1]: 107%
activity at 50 µM [2]: 93%
Cell viability (fold DMSO) Mean (Huh7.5 cells): 1.19 fold DMSO

Cc1ccnc2ccccc12 [PS-3771, Cc1ccnc2ccccc12]
activity at 50 µM [1]: 107%
activity at 50 µM [2]: 101%
Cell viability (fold DMSO) Mean (Huh7.5 cells): 0.92 fold DMSO

Nc1ccc(Cl)cc1Br [PS-3798, Nc1ccc(Cl)cc1Br]
activity at 50 µM [1]: 111%
activity at 50 µM [2]: 94%
Cell viability (fold DMSO) Mean (Huh7.5 cells): 0.99 fold DMSO

COC(=O)c1cc(Br)no1 [PS-3994, COC(=O)c1onc(Br)c1]
activity at 50 µM [1]: 114%
activity at 50 µM [2]: 98%
Cell viability (fold DMSO) Mean (Huh7.5 cells): 1.07 fold DMSO

Nc1cccc(Cl)c1Cl [PS-4077, Nc1cccc(Cl)c1Cl]
activity at 50 µM [1]: 120%
activity at 50 µM [2]: 96%
Cell viability (fold DMSO) Mean (Huh7.5 cells): 0.97 fold DMSO

Nc1ccccc1N1CCCCC1 [PS-4134, Nc1ccccc1N2CCCCC2]
activity at 50 µM [1]: 107%
activity at 50 µM [2]: 111%
Cell viability (fold DMSO) Mean (Huh7.5 cells): 1.12 fold DMSO

Cc1onc(-c2ccccc2)c1CN [PS-4242, Cc1onc(c1CN)c2ccccc2]
activity at 50 µM [1]: 103%
activity at 50 µM [2]: 91%
Cell viability (fold DMSO) Mean (Huh7.5 cells): 0.92 fold DMSO

N[C@@H]1c2ccccc2C[C@@H]1O [PS-4272, N[C@H]1[C@@H](O)Cc2ccccc12]
activity at 50 µM [1]: 102%
activity at 50 µM [2]: 93%
Cell viability (fold DMSO) Mean (Huh7.5 cells): 1.08 fold DMSO

OCC1CN(Cc2ccccc2)CCO1 (stereo not drawn) [PS-4274, OCC1CN(Cc2ccccc2)CCO1]
activity at 50 µM [1]: 116%
activity at 50 µM [2]: 100%
Cell viability (fold DMSO) Mean (Huh7.5 cells): 1.11 fold DMSO

Cc1ccnn1-c1ccccc1 [PS-4283, Cc1ccnn1c2ccccc2]
activity at 50 µM [1]: 106%
activity at 50 µM [2]: 104%
Cell viability (fold DMSO) Mean (Huh7.5 cells): 1.07 fold DMSO

COc1ccc(CO)c(OC)c1 [PS-4550, COc1ccc(CO)c(OC)c1]
activity at 50 µM [1]: 34%
activity at 50 µM [2]: 31%
Cell viability (fold DMSO) Mean (Huh7.5 cells): 0.92 fold DMSO

Cc1onc(-c2ccccc2)c1N [PS-4715, Cc1onc(c1N)c2ccccc2]
activity at 50 µM [1]: 113%
activity at 50 µM [2]: 88%
Cell viability (fold DMSO) Mean (Huh7.5 cells): 1.05 fold DMSO

Clc1[nH]ccc2nccc1-2 [PS-4776, Clc1[nH]ccc2nccc12]
activity at 50 µM [1]: 100%
activity at 50 µM [2]: 84%
Cell viability (fold DMSO) Mean (Huh7.5 cells): 1.13 fold DMSO

O=C(C1CCNCC1)N1CCCC1 [PS-4906, O=C(C1CCNCC1)N2CCCC2]
activity at 50 µM [1]: 117%
activity at 50 µM [2]: 97%
Cell viability (fold DMSO) Mean (Huh7.5 cells): 0.90 fold DMSO

Cc1cc(O)nc2ccc(O)cc12 [PS-4921, Cc1cc(O)nc2ccc(O)cc12]
activity at 50 µM [1]: 83%
activity at 50 µM [2]: 92%
Cell viability (fold DMSO) Mean (Huh7.5 cells): 1.00 fold DMSO
